# Results taken from patent US12708630B2, “Combined therapy of 4′-thio-5-aza-2′-deoxycytidine and Venetoclax” (PINOTBIO, INC., priority 2021, dated 2026).
# Tests used:
# Experiment in all cases: drug activity profiling cytotoxicity
# Format in all cases: cell-based
# 769-P = conditions: Homo sapiens; 769-P cell line, Kidney; read-out: Aza-T-dCyd IC50
# Method in brief: (§1)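 Broad drug activity profiling (200 cell lines) evaluates how cytotoxic Aza-T-dCyd is in each line.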
# A204 = conditions: Homo sapiens; A204 cell line, Sarcoma; read-out: Aza-T-dCyd IC50
# Method in brief: as §1
# A549 = conditions: Homo sapiens; A549 cell line, Lung (NSCLC); read-out: Aza-T-dCyd IC50
# Method in brief: as §1
# A7 = A7 cell line, Skin (Melanoma); read-out: Aza-T-dCyd IC50
# Method in brief: as §1
# ACHN = conditions: Homo sapiens; ACHN cell line, Kidney; read-out: Aza-T-dCyd IC50
# Method in brief: as §1
# ARH-77 = conditions: Homo sapiens; ARH-77 cell line, B-cell lymphoma; read-out: Aza-T-dCyd IC50
# Method in brief: as §1
# COR-L23 = conditions: Homo sapiens; COR-L23 cell line, Lung (NSCLC); read-out: Aza-T-dCyd IC50
# Method in brief: as §1
# Caki-1 = conditions: Homo sapiens; Caki-1 cell line, Kidney; read-out: Aza-T-dCyd IC50
# Method in brief: as §1
# Caki-2 = conditions: Homo sapiens; Caki-2 cell line, Kidney; read-out: Aza-T-dCyd IC50
# Method in brief: as §1
# Hs 688(A).T = Hs 688(A).T cell line, Skin (Melanoma); read-out: Aza-T-dCyd IC50
# Method in brief: as §1
# Hs 821.T = Hs 821.T cell line, Sarcoma; read-out: Aza-T-dCyd IC50
# Method in brief: as §1
# Hs 852.T = Hs 852.T cell line, Skin (Melanoma); read-out: Aza-T-dCyd IC50
# Method in brief: as §1
# J82 = conditions: Homo sapiens; J82 cell line, Bladder; read-out: Aza-T-dCyd IC50
# Method in brief: as §1
# MC116 = conditions: Homo sapiens; MC116 cell line, B-cell lymphoma; read-out: Aza-T-dCyd IC50
# Method in brief: as §1
# MDA MB 468 = conditions: Homo sapiens; MDA MB 468 cell line, Breast; read-out: Aza-T-dCyd IC50
# Method in brief: as §1
# MHH-PREB-1 = conditions: Homo sapiens; MHH-PREB-1 cell line, B-cell lymphoma; read-out: Aza-T-dCyd IC50
# Method in brief: as §1
# MOLT-4 = conditions: Homo sapiens; MOLT-4 cell line, ALL; read-out: Aza-T-dCyd IC50
# Method in brief: as §1
# MeWo = conditions: Homo sapiens; MeWo cell line, Skin (Melanoma); read-out: Aza-T-dCyd IC50
# Method in brief: as §1
# NALM-6 = conditions: Homo sapiens; NALM-6 cell line, ALL; read-out: Aza-T-dCyd IC50
# Method in brief: as §1
# NCI-H292 = conditions: Homo sapiens; NCI-H292 cell line, Lung (NSCLC); read-out: Aza-T-dCyd IC50
# Method in brief: as §1
# OE33 = conditions: Homo sapiens; OE33 cell line, Head and Neck; read-out: Aza-T-dCyd IC50
# Method in brief: as §1
# PA-1 = conditions: Homo sapiens; PA-1 cell line, Female GU (Ovary); read-out: Aza-T-dCyd IC50
# Method in brief: as §1
# RL95-2 = conditions: Homo sapiens; RL95-2 cell line, Female GU (Uterus); read-out: Aza-T-dCyd IC50
# Method in brief: as §1
# RPMI 6666 = conditions: Homo sapiens; RPMI 6666 cell line, Hodgkin's lymphoma; read-out: Aza-T-dCyd IC50
# Method in brief: as §1
# SCaBER = conditions: Homo sapiens; SCaBER cell line, Bladder; read-out: Aza-T-dCyd IC50
# Method in brief: as §1
# SH-4 = conditions: Homo sapiens; SH-4 cell line, Skin (Melanoma); read-out: Aza-T-dCyd IC50
# Method in brief: as §1
# SKO-007 = SKO-007 cell line, B-cell myeloma; read-out: Aza-T-dCyd IC50
# Method in brief: as §1
# SNB-19 = conditions: Homo sapiens; SNB-19 cell line, CNS (Glioma); read-out: Aza-T-dCyd IC50
# Method in brief: as §1
# SW403 = conditions: Homo sapiens, SW-403; SW403 cell line, Colon; read-out: Aza-T-dCyd IC50
# Method in brief: as §1
# SW480 = conditions: Homo sapiens; SW480 cell line, Colon; read-out: Aza-T-dCyd IC50
# Method in brief: as §1
# T24 = conditions: Homo sapiens, T-24; T24 cell line, Bladder; read-out: Aza-T-dCyd IC50
# Method in brief: as §1
structure (smiles),measurement,setting,value
"Nc1ncn([C@H]2CC(O)[C@@H](CO)S2)c(=O)n1 (stereo partly shown) [Aza-T-dCyd, 4′-thio-5-aza-2′-deoxycytidine]",IC50,769-P,65.7 nM
same,IC50,A204,157 nM
same,IC50,A549,190 nM
same,IC50,A7,1190 nM
same,IC50,ACHN,231 nM
same,IC50,ARH-77,413 nM
same,IC50,COR-L23,94.4 nM
same,IC50,Caki-1,85.6 nM
same,IC50,Caki-2,363 nM
same,IC50,Hs 688(A).T,> 10000 nM
same,IC50,Hs 821.T,> 10000 nM
same,IC50,Hs 852.T,> 10000 nM
same,IC50,J82,1980 nM
same,IC50,MC116,29.7 nM
same,IC50,MDA MB 468,1340 nM
same,IC50,MHH-PREB-1,38.9 nM
same,IC50,MOLT-4,35 nM
same,IC50,MeWo,1040 nM
same,IC50,NALM-6,33.8 nM
same,IC50,NCI-H292,194 nM
same,IC50,OE33,161 nM
same,IC50,PA-1,39.2 nM
same,IC50,RL95-2,705 nM
same,IC50,RPMI 6666,1050 nM
same,IC50,SCaBER,187 nM
same,IC50,SH-4,698 nM
same,IC50,SKO-007,4290 nM
same,IC50,SNB-19,170 nM
same,IC50,SW403,619 nM
same,IC50,SW480,1580 nM
same,IC50,T24,1530 nM
